From paper PMC9114170, “Investigation of the Role of Hydrophobic Amino Acids on the Structure-Activity Relationship in the Antimicrobial Venom Peptide Ponericin L1” (The Journal of membrane biology, 2021)
Ends that are not written are not given here.

Legend:
[1] = Trichloroethanol (TCE) quenching of Trp fluorescence, solution aggregation assay; format: physicochemical; conditions: 2 μM peptide in PBS pH 7.0, titration with 10M TCE, λex 280 nm, λem 340, average of three replicates
Protocol: Trichloroethanol (TCE) quenching was monitored by titration of samples with 10 μL aliquots of 10M TCE (Alfa Aesar, Haverhill, Massachusetts) into peptide samples prepared as described above. After each addition of TCE, Trp fluorescence intensity was measured using λex = 280 nm and λem = 340. Corrections to the emission intensity were made for background subtraction and dilutions. The slope of the linear best fit equation to the data (eqn 2) was used as the Stern-Volmer quenching constant (Ksv) (2) F0/F=1+Ksv[Q] where F0 is the fluorescence intensity in the absence of quencher, and F is the fluorescence intensity in the presence of a given concentration of quencher [Q].
The environment of the L1 Trp residue was further probed using fluorescence quenching by trichloroethanol (TCE) which selectively exerts quenching on Trp residues which are shielded from the aqueous milieu, such as at the interior of a peptide aggregate. The results are shown in Figure 2B, with the Ksv values for the quenching shown in Supplemental Table 1. […] However, considering the reduced overall hydrophobicity of this peptide and thus higher aqueous solubility, decreased TCE quenching is not surprising.

[2] = Acrylamide quenching of Trp fluorescence in absence and presence of lipid vesicles; format: physicochemical; conditions: 2 μM peptide in PBS pH 7.0, λex 295 nm, λem 340, average of three replicates ± SD; for Acrylamide quenching Ksv, PCPG: 3:1 DOPC:DOPG vesicles; for Acrylamide quenching Ksv, PCPG / Acrylamide quenching Ksv, PEPG / Acrylamide quenching Ksv, PC / Acrylamide quenching Ksv, PC/Chol: 250 μM lipid; for Acrylamide quenching Ksv, PEPG: 3:1 POPE:DOPG vesicles; for Acrylamide quenching Ksv, PC: DOPC vesicles; for Acrylamide quenching Ksv, PC/Chol: DOPC:Cholesterol vesicles; for Acrylamide quenching Ksv, PBS: no lipid vesicles
Protocol: To form small unilamellar vesicles (SUVs) sonication or ethanol dilution methods were implemented ([Caputo & London, 2019]). In all cases, lipid vesicle preparation was the same. Depending on the lipid composition, appropriate volumes of lipids in chloroform were mixed in a glass tube and then allowed to dry under N2 gas for 15 minutes. The lipid films were then placed in a vacuum desiccator and allowed to dry further under a vacuum for 1 hour. For vesicles formed through ethanol dilution methods, 10 μL of pure ethanol was added to the film, and then vortex until the dissipation of the film. While continuing to vortex, the appropriate amount of PBS was added. For vesicles formed using the method of sonication, PBS was added directly to the tube while being vortexed to create multilamellar vesicles (MLVs). The MLV suspension was covered with parafilm and then placed in a high-powered bath sonicator (Avanti Lipids) and subjected to sonication for 20 minutes to create SUVs.
Acrylamide quenching was monitored by titration of samples with 10 μL aliquots of 4M acrylamide titrated into peptide samples prepared as described above. These samples contained either or [0.25] mM total lipid. After each addition of acrylamide, Trp fluorescence intensity was measured using λex = 295 nm and λem = 340. Corrections to the emission intensity were made for background subtraction, dilutions, and inner filter effects in the excitation path as described previously. The same method to calculate Ksv was used as above.
In order to gain more insight into the bilayer interactions, fluorescence quenching approaches were utilized. The peptides were exposed to the aqueous quencher acrylamide in solution or when bound to vesicles. […] Thus, peptide Trp exposure to the aqueous milieu can be gauged by the extent of quenching by acrylamide. Stern-Volmer quenching plots were created to analyze the data and Ksv (slopes of a linear fit to the data) are shown in Figure 4 and Table 2. […] In the case of L1L and L1I, there was a significant reduction in quenching between the solution (free) state of the peptide and when bound to anionic vesicles, but a much smaller reduction if any when interacting with zwitterionic vesicles. This is consistent with a more deeply buried Trp in anionic bilayers.

[3] = system: Gram-positive and Gram-negative strains; test: Antimicrobial activity over the MIC panel; format: cell-based; conditions: highest concentration tested 15μM
Protocol: Six different strains of bacteria were streaked on LB-Miller agar plates from a frozen glycerol stock derived from the original samples shipped from CGSC (Coli Genetic Stock Center, Yale University) or ATCC (American Type Culture Collection) (Escherichia coli D31 CGSC 5165 ([Burman, Nordstrom & Boman, 1968]), Staphylococcus aureus ATCC 35556. Pseudomonas aeruginosa PA-01 ATCC 47085, Acinetobacter baumannii ATCC 19606). For each of the strains a liquid overnight culture was prepared using a single colony into fresh LB broth and placed in a shaking incubator for ~ 18 hours at 37 C at 225 rpm. After the incubation period, a 1:200 dilution was made in fresh LB broth and then used for experimentation. Minimal Inhibitory Concentration (MIC) determinations were performed using mid-log phase bacteria diluted to 5 x 10^5 CFU/mL. Next, 90 μL of this diluted culture was then pipetted into a sterile 96-well plate that contains serially diluted aliquots of the peptide variants to consist of a total volume of 100 μL. This plate was then incubated for 18 hours at 37 C. Bacterial growth was determined by taking an OD600 measurement using a Spectramax M5 multimode plate reader post incubation. Minimal Bactericidal Concentration (MBC) was performed by taking 1 μL of the culture from the MIC plate and then pipetting it on to a fresh LB agar plate. After plating this culture, the plate was then incubated overnight at 37 C. MBC was determined by the growth or the lack of growth from each well on the agar plate.
The ability of L1 and the hydrophobic variants to act as antimicrobials was investigated using the Minimal Inhibitory Concentration (MIC) and Minimal Bactericidal Concentration (MBC) assays as previously described ([Wiegand, Hilpert & Hancock, 2008]). The MIC is determined as the lowest concentration of peptide required to inhibit bacterial growth in solution, while the MBC is the lowest concentration required to act in a bactericidal mechanism (as opposed to bacteriostatic) and is determined by plating MIC cultures on antimicrobial-free media. Peptides were screened against E. coli, S. aureus, A. baumannii, P. aeruginosa, B. subtilis, and K. pneumoniae.

[4] = system: E. coli D31 outer membrane; test: E. coli outer membrane permeabilization (nitrocefin / β-lactamase); format: cell-based, Escherichia coli; conditions: E. coli D31, nitrocefin hydrolysis, absorbance 486 nm, up to 90 minutes; peptide serially diluted from 15 μM; average of three replicates
Protocol: A single colony of E.coli D31 was taken from an LB agar plate and inoculated into fresh LB broth with 100 μg/mL ampicillin (LB-Amp), then place in a shaking incubator at 37 C (225 rpm) for ~ 18 hours. After the incubation period 100 μL was taken from the culture and diluted with 25 mL of fresh LB-Amp. The dilution was further incubated in the same conditions until an OD600 of 0.2 to 0.4 was obtained. Once the specified OD600 was reached the culture was then centrifuged at 2500 rpm for 15 minutes in a tabletop clinical centrifuge. The supernatant was discarded and then an equal amount of PBS (100 mM NaH2PO4, 200 mM NaCl, pH7) was used to resuspend the pellet.
Experimental samples were prepared in a 96-well plate in the order as follows: 10 μL of the six peptide variants that were serially diluted starting a concentration of 15 μM with the exception of the last row (used as a negative control 10 μL of 0.01% acetic acid). 80 μL of the resuspended bacteria culture, and 10 μL of 50 μg/mL nitrocefin in PBS. The absorbance was recorded at 486 nm in 5-minute intervals for a total run time of 90 minutes immediately following the addition of nitrocefin. The antimicrobial agent polymyxin B was used as a positive control. The values presented are the average of three replicates.
As the mechanism of action of the L1 venom peptide is likely a membrane disruptive mechanism, the effect of the hydrophobic substitutions on membrane permeabilization was investigated using E.coli and ovine red blood cells (RBCs). The permeabilization of the E. coli outer membrane was assayed using an enzyme-substrate pair in which the enzyme (β-lactamase) is located in the periplasmic space while the substrate (the chromogenic nitrocefin) is added to the exterior of cells. […] Similarly, the permeabilization of the E. coli inner membrane was assessed using a cytoplasmic enzyme, β-galactosidase, and a chromogenic substrate, ONPG. […]

[5] = system: Sheep red blood cells (RBCs); conditions: earlier work of the group; ref Senetra, Necelis & Caputo, 2020b; cited from earlier work
Excerpt: The ponerine ant, Neoponera goeldii (previously classified as Pachycondyla goeldii), produces a mixture of venom peptides known as ponericins ([Orivel et al., 2001]). These peptides have been subdivided into three sub-classes based on the amino acid sequences (L, W, and G) and contain a total of 15 independent peptide sequences. […] Among these peptides, the L1 sequence was the most poorly characterized.

[6] = Red edge excitation shift (REES) solution aggregation assay; format: physicochemical; conditions: 2 μM peptide in PBS pH 7.0, λex 280 to 307 nm, emission 310 to 410 nm, Trp fluorescence, average of three replicates
Excerpt: All fluorescence spectroscopy experiments were preformed using a JY-Horiba Fluoromax4 instrument. Excitation and emission slit widths were kept consistent at 2.5 nm. Semi-micro quartz cuvettes were utilized for each experiment. The following formula was used to calculate a spectral barycenter for each experiment: (1) B=∑λ*i/∑i where B is the barycenter, λ is the wavelength, and i is the intensity at the specified wavelength. An entire emission spectrum from 300-400 was used the carry out the calculation of barycenter.
Red edge excitation shift (REES) experiments utilized excitation at 6 different wavelengths (λex = 280, 290, 295, 300, 305, and 307 nm) and the same emission range of 310 to 410 nm. Samples were similarly prepared as above. A blank only containing PBS buffer was used as background to correct the spectra after each addition.
Aggregation of peptides was assessed utilizing the intrinsic fluorescence properties of the Trp residue in the L1 sequence. […] Differences in the side chain motion/dynamics of the Trp residue and the local environment around the Trp can be observed by monitoring the red-edge excitation shifts (REES). […]

Sequence | TCE quenching of Trp fluorescence (extent) [1] | Acrylamide quenching Ksv, PCPG [2] [M⁻¹] | Acrylamide quenching Ksv, PEPG [2] [M⁻¹] | Acrylamide quenching Ksv, PC [2] [M⁻¹] | Acrylamide quenching Ksv, PC/Chol [2] [M⁻¹] | Acrylamide quenching Ksv, PBS [2] [M⁻¹] | Antimicrobial activity (summary of MIC results) [3] | Outer membrane permeabilization [4] | Hemolytic activity [5] | REES total shift [6]
AAKEAWTKMKGAGKAAAGKAKGAA [L1A] | markedly lower than the others | 10.9 ± 0.26 | 3.59 ± 0.58 | 8.51 ± 0.46 | 10.79 ± 0.27 | 8.19 ± 0.90 | no antimicrobial activity |  |  | 
IIKEIWTKMKGAGKAIIGKIKGII [L1I] |  | 8.72 ± 2.09 | 3.39 ± 2.25 | 4.9 ± 1.51 | 12.65 ± 0.63 | 10.5 ± 0.67 | broad spectrum activity | no membrane disruption above background |  | 
LLKELWTKMKGAGKAVLGKIKGLL [L1, ponericin L1] |  |  |  |  |  |  |  |  | very low level of hemolytic activity | 
VVKEVWTKMKGAGKAVVGKVKGVV [L1V] | showed the most quenching | 16.86 ± 6.47 | 5.64 ± 0.38 | 4.18 ± 0.15 | 12.19 ± 1.54 | 12.14 ± 1.59 | no antimicrobial activity |  |  | ~ 10 nm
